Legend:
Assay type in all cases: in vivo, human
[1] = test system: patients with negative symptoms of schizophrenia; test: Study #1 (MIN-101C03): Brief Assessment of Cognition in Schizophrenia; parameters: Change from Baseline LS Mean: Brief Assessment of Cognition in Schizophrenia Total Score / Change from Baseline LS Mean: Brief Assessment of Cognition in Schizophrenia Total Verbal Fluency: unit not given here; details: Week 12 DB, ITT
From the text: (§1) Phase 2b Study #1 (also referred to herein as “MIN-101C03”) was a Phase 2b, double-blind (“DB”), placebo-controlled, randomized, multicenter 12-week study to evaluate the efficacy, safety, and tolerability of Roluperidone in patients ≥18 years to ≤60 years with negative symptoms of schizophrenia, followed by a 24-week open-label (“OL”) extension. The primary objective of the study was to evaluate the efficacy of Roluperidone compared to placebo in improving the negative symptoms of schizophrenia as measured by the change from Baseline in the PANSS negative factor score of the PSM (“PANSS PSM”) over 12 weeks of treatment.
(§2) The study consisted of a pretreatment screening period of up to 28 days (including washout), a 12-week, DB, placebo-controlled period, and a 24-week OL period. Eligible patients (who were symptomatically stable for at least 3 months and had scores of at least 20 on the PANSS negative subscale score) were randomized in a 1:1:1 ratio to receive oral Roluperidone (a modified-release, “MR”, formulation) 32 mg QD, Roluperidone 64 mg QD, or placebo for 12 weeks. […] During the 24-week, OL treatment extension period, patients who were initially randomized to Roluperidone 32 mg or 64 mg continued on the same dose, while patients who were initially randomized to placebo crossed over to Roluperidone 32 mg or 64 mg in a 1:1 ratio.

[2] = test system: patients with negative symptoms of schizophrenia; test: Study #1 (MIN-101C03): rate of relapse; details: for Rate of relapse (%) / Rate of relapse (number of patients): DB period, MIN-101C03
Procedure: “Time to relapse” in the DB period is defined as the number of days from Day 1 to the date of early trial termination due to relapse. […] Treatment differences in time to relapse in the DB period were analyzed using a Cox-regression model with treatment group and Baseline PANSS total score as covariates. For the analysis of the OL period, this analysis was repeated to analyze treatment differences in time to relapse in the study. For the OL period analysis, patients who were not observed to relapse in the study were censored on the date on which they ended the study. Kaplan-Meier plots of time to relapse in the DB period, OL period, and in the study were generated.
In some embodiments, for any of the methods disclosed herein, a relapse refers to a patient who is terminated early during treatment (or a study trial) due to worsening of psychosis or an adverse event or generalized symptom in Table 1.
as §1, §2

[3] = test system: patients with negative symptoms of schizophrenia; test: Study #1 (MIN-101C03): safety and tolerability (TEAEs, QTcF); details: for Patients with QTcF prolongation >500 msec and change from Baseline in QTcF >60 msec: DB period
From the text: as §1, §2
Clinically significant QTcF prolongation >500 msec and change from Baseline in QTcF>60 msec were reported in 2 patients of the 64 mg Roluperidone group, and in no patients in the 32 mg Roluperidone group or in the placebo group during the DB period of the study. The mean changes across all vital sign parameters were small from Baseline to the respective study visits in the DB period of the study.

## 1H-Isoindol-1-one,2-[ [1-[2-(4-fluorophenyl)-2-oxoethyl]-4-piperidinyl]methyl]-2,3-dihydro-, hydrochloride, hydrate (1:1:2) [Roluperidone]
[1]; 32 mg QD
  Change from Baseline LS Mean: Brief Assessment of Cognition in Schizophrenia Total Score: 23.8
  Change from Baseline LS Mean: Brief Assessment of Cognition in Schizophrenia Total Verbal Fluency: 5.76
  Effect Size vs Placebo: Brief Assessment of Cognition in Schizophrenia Total Score: 0.43
  Effect Size vs Placebo: Total Verbal Fluency: 0.51
[1]; 64 mg QD
  Change from Baseline LS Mean: Brief Assessment of Cognition in Schizophrenia Total Score: 14.9
  Change from Baseline LS Mean: Brief Assessment of Cognition in Schizophrenia Total Verbal Fluency: 4.37
  Effect Size vs Placebo: Brief Assessment of Cognition in Schizophrenia Total Score: 0.12
  Effect Size vs Placebo: Total Verbal Fluency: 0.36
[2]; 32 mg
  Rate of relapse (%): 7%
  Rate of relapse (number of patients): 5
[2]; 64 mg
  Rate of relapse (%): 9%
  Rate of relapse (number of patients): 7
[2]; Study #1 (n = 244), all subjects, Double-blind (12-weeks)
  Relapse by study phase: 11.5%
[2]; Study #1 (n = 244), Overall (over 36 weeks)
  Relapse overall (discontinued because of positive symptoms worsening): 15.2%
[2]; Study #1, Open-label (over 24 weeks)
  Relapse by study phase: 6%
[3]; 32 mg
  Patients with QTcF prolongation >500 msec and change from Baseline in QTcF >60 msec: no patients
[3]; 64 mg
  Patients with QTcF prolongation >500 msec and change from Baseline in QTcF >60 msec: 2 patients
[3]; 32 and 64 mg, up to 36 weeks of treatment
  Tolerability (TEAEs, SAEs): generally well tolerated
[3]; Roluperidone groups
  QTcF prolongation >450 msec and QTcF increases relative to baseline of ≥30 msec: dose-dependent manner
